From patent publication US20230173071A1, “TREATMENT OF MYOPIA AND OTHER OCULAR CONDITIONS USING SINGLET OXYGEN GENERATED FROM DYES ACTIVATED BY NEAR-INFRARED LIGHT” (California Institute of Technology, priority 2018, published 2023)
“Also recorded” adds a separate entry of the source.

Tests used:
[1] = Irradiation of IR-1061 dyes with DPBF, 980 nm or 1064 nm laser; type: physicochemical; conditions: for DPBF signal relative to a dark control: 30 minutes of irradiation, 1 W cm^-2 980 nm laser
Description: Initial work was done using a set of IR-1061 derivatives: cited herein as IR-1061-pyridine and IR-1061-pyridinium.
Like IR-1061-pyridinium, IR-1061-acridinium was irradiated in CDCl3 in the presence of DPBF using a 1 W cm^−2 980 nm laser (FIG. 15(A)). As a comparison, a similar irradiation was carried out using a 1.8 W cm^−2 1064 nm laser (FIG. 16). The collective effect of irradiation wavelength and conditions are seen in FIGS. 15(A-C), and FIGS. 16-18.

[2] = Dye stability observations
Description: Unfortunately, IR-1061-pyridinium was unatable in the presence of water. In an attempt to overcome the susceptibility of IR-1061-pyridinium to hydration, the pyridine charge-transfer partner was exchanged for acridine, which was expected to shield the dye from water addition due to its additional bulk.
To confirm that the process was singlet oxygen-mediated, irradiation of a freeze-pump-thawed sample—devoid of oxygen—was carried out. […] To evaluate the scope of the reaction, the dye was irradiated in an array of deuterated solvents.

[3] = Irradiation of IR-1061 dyes with DPBF, 980 nm or 1064 nm laser; type: physicochemical
[4] = Singlet oxygen generation by DPBF decay (UV-Vis), 810 nm LED; type: physicochemical
Source text: To evaluate the efficiency of singlet oxygen generation by ICG and an analog (IR-820) in vitro, the singlet oxygen generation was monitored. 1,3-diphenylisobenzofuran (DPBF), a compound that decays in the presence of singlet oxygen, and singlet oxygen sensor green (SOSG), a dye that increases fluorescence in the presence of singlet oxygen, were used as markers to indicate singlet oxygen generation by ICG and IR-820. […] For SOSG analysis, the fluorescence turn-on in H2O and D2O was compared to that observed when riboflavin—an FDA approved dye used in conjunction with UV light to treat keratoconus (corneal expansion)—was usedIn all cases, an increase in fluorescence emission at 525 nm was observed (using a 488nm excitation).

[5] = Dye solubility observations; type: physicochemical; conditions: counterion exchanged from BF4- to BarF-
Description: ICG is a NIR-absorbing heptamethine dye that has the potential of generating singlet oxygen upon irradiation and has a λmax ranging from 780-810 nm depending on the context. […] BAC along with other cationic surfactants (alkyl ammonium salts, polyoxyethylene alkyl amines, amide linked alkyl amines, alkyl imidazolines, etc.) aid in the solubility of the dye in aqueous media. […] The standard formulation used in these studies consisted of 0.05 to 5.0 mg/mL ICG and 0.01% to 0.001% BAC in solution. D2O was selected as the solvent to increase the lifetime of singlet oxygen and therefore the crosslinking capability of the species. […] Fluorinated solvents (perfluorohexane, perfluorotripentylamine, etc.) are also of interest due to their ability to dissolve more oxygen and their robust inertness.

[6] = Singlet oxygen sensor green (SOSG) fluorescence measurements; type: physicochemical; conditions: dye 0.1 mg/mL; 3 mW at 365 nm; 488 nm excitation
Description: Singlet oxygen sensor green (SOSG) is a common reagent for measuring singlet oxygen generation in aqueous systems. The marker becomes more fluorescent as singlet oxygen is generated. All time measurements were done in triplicate (100 μL aliquots from an irradiated sample). A Molecular Devices Flexstation was used to read out the fluorescence measurements with the excitation/emission at 488/525 nm.
SOSG fluorescence turn on was initially measured using riboflavin as a point of comparison for the efficacy of ICG irradiations. Measurements used a dye concentration of 0.1 mg/mL and the irradiation the parameters (3 mW at 365 nm) used in the FDA approved procedure for keratoconus (corneal expansion). The mixture was stirred during irradiation.
Stocks of the ICG formulations (both H2O and D2O) were made to be 1 mg/mL ICG and 0.01% benzalkonium chloride (BAC). These were diluted to a dye concentration of 0.1 mg/mL for the SOSG tests with no adjustments for the BAC. The sample was irradiated with 810 nm light at 200 mW and stirred throughout the irradiation.

porcine sclera = conditions: treated with UV light and riboflavin; previous work; cited from earlier work
[7] = deuterated polar aprotic solvents, such as DMSO
[8] = water (D2O with 7.5% DMSO-D6), 980 nm

C(/C=C1\CCCC(/C=C/c2cc(-c3ccccc3)[s+]c(-c3ccccc3)c2)=C1[n+]1c2ccccc2cc2ccccc21)=C1C=C(c2ccccc2)SC(c2ccccc2)=C1 [IR-1061-acridinium]
dye and DPBF signal during irradiation ([1]; 1064 nm in CDCl3): Rapid bleaching of both the dye and DPBF signal | DPBF signal ([1]; freeze-pump-thawed CDCl3 (devoid of oxygen), 980 nm): no change | stability to strong acids and bases ([2]; prior to irradiation): dye instability and bleaching prior to irradiation | singlet oxygen generation ([3]; deuterated nonpolar solvents, such as toluene): no singlet oxygen generation was observed | DPBF degradation [3, 7]: decreased | photobleaching of the dye [3, 7]: photobleaching | DPBF degradation rates [3, 8]: comparable to those seen in chloroform | photobleaching of the dye [3, 8]: high levels

ClC1=C(/C=C/c2cc(-c3ccccc3)[s+]c(-c3ccccc3)c2)CCC/C1=C\C=C1C=C(c2ccccc2)SC(c2ccccc2)=C1 [IR-1061]
DPBF signal relative to a dark control [1]: no significant changes

C(/C=C1\CCCC(/C=C/c2cc(-c3ccccc3)[s+]c(-c3ccccc3)c2)=C1[n+]1ccccc1)=C1C=C(c2ccccc2)SC(c2ccccc2)=C1 [IR-1061-pyridinium]
DPBF signal relative to a dark control [1]: significant decrease | stability in the presence of water [2]: unatable

CC1(C)C(=CC=C2CCCC(C=CC3=[N+](CCCCS(=O)(=O)[O-])c4ccc5ccccc5c4C3(C)C)=C2Cl)N(CCCCS(=O)(=O)[O-])c2ccc3ccccc3c21.[Na+] [IR-820]
DPBF decay / singlet oxygen generation in D2O compared to H2O ([4]; 810 nm LED): increase; also recorded: faster decay rate | DPBF signal decay when irradiated ([4]; D2O, 810 nm LED): marked increase in the signal decay | DPBF signal decay when irradiated ([4]; H2O, 810 nm LED): marked increase in the signal decay | singlet oxygen generation (DPBF analysis) ([4]; in H2O or D2O): singlet oxygen generation was observed

C(/C=C1\CCCC(/C=C/c2cc(-c3ccccc3)[s+]c(-c3ccccc3)c2)=C1[n+]1c2ccccc2cc2ccccc21)=C1C=C(c2ccccc2)SC(c2ccccc2)=C1 [IR-1061-Acridinium BArF]
photosensitization capability ([1]; counterion exchanged from BF4- to BarF-): marked decrease | solubility [5]: increase

Cc1cc2nc3c(=O)[nH]c(=O)nc-3n(C[C@H](O)[C@H](O)[C@H](O)CO)c2cc1C [riboflavin]
SOSG fluorescence emission at 525 nm [6]: increase | change in Young's Modulus of pig sclera (porcine sclera): minimal change
